Test results reported in article PMC8196580, “Identification of Kaurane-Type Diterpenes as Inhibitors of Leishmania Pteridine Reductase I” (Molecules, 2021).
Like-named read-outs stand apart in the source and are kept apart here.

Columns and labels:
L. major [1] = tested on: L. major; set-up: method as in ChEMBL; conditions: ref ChEMBL, cited from earlier work
L. major [2] = experiment: ChEMBL dataset of pIC50 values against L. major used for the RF model (Table S1); assay type: cell-based, Leishmania major; also: call rule not given here
[3] = ChemBL structures with pIC50 values used for Random forest model construction, L. major
[4] = Active/Inactive class assigned to the ChEMBL pIC50 value for Random forest model construction, ref ChEMBL
[5] = ChemBL structures with pIC50 values used for Random forest model construction (Table S1)
[6] = Active/Inactive class assigned to ChemBL structures for Random forest model construction (Table S1)

Structure (SMILES) | pIC50 Value (L. major [1]; [3]) | Outcome (L. major [2]; [4]) | pIC50 Value (L. major [1]; [5]) | Outcome (L. major [2]; [6])
COc1cc(/C=N\NC(N)=S)ccc1OCc1cn(CC(=O)c2ccc(Br)cc2)nn1 [CHEMBL4159895] | 5.29 | Active | – | –
c1ccc2[nH]c(-c3ccncc3)nc2c1 [CHEMBL379376] | – | – | 5.35 | Active
CC1(C)C2CCC1(C)[C@H](OC(=O)/C=C/c1ccc(O)c(O)c1)C2 (some centres unmarked) [CHEMBL4177500] | 4.31 | Inactive | – | –
O=[N+]([O-])c1cccc(-c2nc3ccccc3[nH]2)c1 [CHEMBL475377] | – | – | 5.47 | Active
CN[C@@H](C)[C@H]1CC[C@H]2[C@@H]3CC[C@H]4[C@@H](OC(C)=O)[C@@H](NC(=O)C=C(C)C)CC[C@]4(C)[C@H]3CC[C@]12C [CHEMBL504923] | – | – | 5.48 | Active
CCCCCCOc1ccc(Nc2c3ccccc3nc3ccccc23)cc1 [CHEMBL89758] | – | – | 6.00 | Active
CSc1cccc(Nc2ncnc3ccc([N+](=O)[O-])cc23)c1 [CHEMBL3760067] | 4.70 | Inactive | – | –
CC(=O)C1=C(C)NC(=O)NC1c1cccc([N+](=O)[O-])c1 (centres unmarked) [CHEMBL3785264] | – | – | 5.61 | Active
O=[N+]([O-])c1ccc(-c2nnc(N3CCCCC3)s2)o1 [CHEMBL372172] | – | – | 5.49 | Active
Nc1ccc(-c2c(-c3ccccc3)nc3ccccn23)cc1 [CHEMBL2151863] | 4.37 | Inactive | – | –
COc1cc2c(c(OC)c1)C(C)N(c1ccc(C(C)C)cc1)C(C)C2 (centres unmarked) [CHEMBL481808] | 4.30 | Inactive | – | –
Cc1csc(C(=O)/C=C/c2cc3ccc(C)cc3nc2Cl)c1 [CHEMBL1940852] | – | – | 5.60 | Active
O=[N+]([O-])c1ccc2nc(-c3ccccc3[N+](=O)[O-])[nH]c2c1 [CHEMBL1481977] | – | – | 5.59 | Active
NP(=O)(OCc1ccc([N+](=O)[O-])c(F)c1)N(CCCl)CCCl (centres unmarked) [CHEMBL1256990] | 5.04 | Active | – | –
CCCN1CN(CC(=O)O)CSC1=S [CHEMBL4287780] | 4.41 | Inactive | – | –
Cc1ccc2cc(/C=C/C(=O)c3ccc(C)s3)c(Cl)nc2c1 [CHEMBL1940853] | – | – | 5.65 | Active

Structure (SMILES) | pIC50 Value (L. major [1]; [3]) | Outcome (L. major [2]; [4]) | pIC50 Value (L. major [1]; [5]) | Outcome (L. major [2]; [6])
CCN(CC)c1ccc(Nc2c3ccccc3nc3ccccc23)cc1 [CHEMBL315530] | – | – | 6.40 | Active
Cc1ccccc1/N=C/c1cn(C)c2ccccc12 [CHEMBL2071558] | – | – | 5.64 | Active
Cc1csc(C2=NNC(c3cc4cccc(C)c4nc3Cl)C2)c1 (centres unmarked) [CHEMBL2235719] | – | – | 5.66 | Active
COc1ccccc1-c1nnc(-c2ccc(C(=O)N/N=C/c3cc(O)c(O)cc3O)cc2)o1 [CHEMBL4098126] | – | – | 6.01 | Active
C/C=C/C=C/c1nc2ccc(OC)cc2n2cccc12 [CHEMBL3260208] | – | – | 5.57 | Active
COc1cc2c(c(OC)c1)C(C)=[N+](c1ccc(OC)c3c(OC)cc(C)cc13)[C@@H](C)C2.O=C([O-])C(F)(F)F [CHEMBL222358] | – | – | 5.31 | Active
CC(C)=CC(=O)N[C@H]1CC[C@@]2(C)[C@@H](CC[C@@H]3[C@@H]2CC[C@]2(C)C([C@H](C)N(C)C)=CC[C@@H]32)[C@H]1O [CHEMBL496487] | 4.95 | Inactive | – | –
CCOc1ccc(N2C(=O)C(c3ccc(C)cc3)(c3ccc(C)cc3)C2c2cn(C)c3ccccc23)cc1 (centres unmarked) [CHEMBL2071566] | – | – | 5.90 | Active
CCCCCCN(C)c1ccc(Nc2c3ccccc3nc3ccccc23)cc1 [CHEMBL415472] | – | – | 6.52 | Active
C[C@H](OP(N)(=O)N(CCCl)CCCl)c1ccc([N+](=O)[O-])cc1 (some centres unmarked) [CHEMBL2158072] | 4.52 | Inactive | – | –
COc1cc(OC)c2c(C)[n+](-c3cccc4c3C(=O)c3ccccc3C4=O)c(C)cc2c1.F[B-](F)(F)F [CHEMBL474599] | 4.00 | Inactive | – | –
O=C(c1ccc(Cl)cc1)N1CCN(c2nnc(-c3ccc([N+](=O)[O-])o3)s2)CC1 [CHEMBL458528] | 4.58 | Inactive | – | –
CC(c1ccccc1)N1CN(CCO)CSC1=S (centres unmarked) [CHEMBL4279631] | 4.49 | Inactive | – | –
Cc1ccc(-c2c(-c3ccccc3)nc3ccccn23)cc1 [CHEMBL2151857] | – | – | 5.40 | Active
O=[N+]([O-])c1ccc2nc(-c3ccccn3)[nH]c2c1 [CHEMBL380979] | – | – | 5.52 | Active
